The source of these data is ChEMBL document CHEMBL1142012, “Synthesis and SAR of 4-(3-hydroxyphenylamino)pyrrolo[2,1-f][1,2,4]triazine based VEGFR-2 kinase inhibitors” (Bioorg Med Chem Lett, 2005).

Series [1] deals with Vascular endothelial growth factor receptor 2 (Homo sapiens, UniProt P35968). The experiment in a line: Inhibitory concentration against Vascular endothelial growth factor receptor 2.
Series [2] relates to Cell line. Nature of the series: Inhibitory concentration against Human umbilical vein endothelial cells stimulated by VEGF was determined. It is filed as functional, cell-based.
For a further series, the species on record is Homo sapiens. The following applies: Liver, Microsome.
The nature of series [3]: Glucuronidation in human liver microsomes was determined. The class given is ADME, Microsome. Background: Liver microsomes are a subcellular fraction often used to study metabolism.
Series [4] deals with Cell line. Nature of the series: Inhibitory concentration against Human umbilical vein endothelial cells stimulated by VEGF was determined;NA= not active. The class given is functional, cell-based.
A short description of series [5]: Area under the concentration time curve (0-4 hr) value in mouse after 50 mg/kg oral dosage. On the set-up: time < 4 hr, dose 50 mg/kg, route oral. The following applies: in vivo. It is filed as ADME, organism-based.
The nature of series [6]: Maximum plasma concentration in mouse after 50 mg/kg oral dosage. On the set-up: dose 50 mg/kg, route oral. The class given is ADME, organism-based.

Sequence of Vascular endothelial growth factor receptor 2 (P35968 whole entry): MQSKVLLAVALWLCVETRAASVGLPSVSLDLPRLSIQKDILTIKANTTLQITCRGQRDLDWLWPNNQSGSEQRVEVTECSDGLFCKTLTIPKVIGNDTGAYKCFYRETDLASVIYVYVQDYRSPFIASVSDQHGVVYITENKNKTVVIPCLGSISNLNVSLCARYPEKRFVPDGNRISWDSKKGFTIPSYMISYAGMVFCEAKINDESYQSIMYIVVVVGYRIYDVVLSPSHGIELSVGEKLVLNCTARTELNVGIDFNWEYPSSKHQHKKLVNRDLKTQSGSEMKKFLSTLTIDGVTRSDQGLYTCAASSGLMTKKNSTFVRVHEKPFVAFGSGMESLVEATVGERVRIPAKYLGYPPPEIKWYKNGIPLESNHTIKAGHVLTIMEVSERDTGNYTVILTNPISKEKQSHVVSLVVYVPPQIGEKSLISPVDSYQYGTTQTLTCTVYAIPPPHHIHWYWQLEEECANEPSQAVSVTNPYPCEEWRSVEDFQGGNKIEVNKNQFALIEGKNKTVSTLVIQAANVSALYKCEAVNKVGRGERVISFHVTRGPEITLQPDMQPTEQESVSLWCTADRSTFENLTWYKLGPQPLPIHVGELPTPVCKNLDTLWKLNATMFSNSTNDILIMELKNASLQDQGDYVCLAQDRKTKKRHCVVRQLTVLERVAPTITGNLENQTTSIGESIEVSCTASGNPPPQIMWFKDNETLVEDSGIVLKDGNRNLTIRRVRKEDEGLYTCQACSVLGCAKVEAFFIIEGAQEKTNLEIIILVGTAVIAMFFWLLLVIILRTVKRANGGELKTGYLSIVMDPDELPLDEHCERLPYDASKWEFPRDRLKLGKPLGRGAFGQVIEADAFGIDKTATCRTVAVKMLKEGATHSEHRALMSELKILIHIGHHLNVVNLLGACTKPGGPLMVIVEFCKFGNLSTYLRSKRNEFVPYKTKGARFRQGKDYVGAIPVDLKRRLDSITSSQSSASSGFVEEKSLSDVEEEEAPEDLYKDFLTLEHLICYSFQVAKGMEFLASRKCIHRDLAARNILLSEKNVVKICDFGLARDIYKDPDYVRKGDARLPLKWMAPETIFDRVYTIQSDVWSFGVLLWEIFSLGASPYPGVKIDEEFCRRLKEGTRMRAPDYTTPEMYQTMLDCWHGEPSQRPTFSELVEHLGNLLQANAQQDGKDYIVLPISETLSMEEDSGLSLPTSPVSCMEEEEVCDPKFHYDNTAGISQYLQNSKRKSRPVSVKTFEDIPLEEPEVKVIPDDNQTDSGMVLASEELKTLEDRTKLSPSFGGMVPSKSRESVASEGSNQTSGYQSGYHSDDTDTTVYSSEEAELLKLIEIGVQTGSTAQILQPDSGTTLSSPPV

Usually IC50 stands for the concentration that inhibits the measured activity by half. A higher IC50 goes with weaker potency. For `CCOC(=O)c1cn2ncnc(Nc3ccc(C)c(O)c3)c2c1C(C)C`, the 50% inhibitory concentration (IC50) in series [1] is 14 nM; in the series with Cell line [2], 4 nM.

Turning to `Cc1ccc(Nc2ncnn3cc(C(=O)NCCCn4nccn4)c(C)c23)cc1O`, the IC50 worked out at 30 nM in series [1] and 20 nM in the series on Cell line [2]. Also, the Glucuronidation in the series listed under Homo sapiens came out at 0.21 nmol/min/mg.

As to `Cc1ccc(Nc2ncnn3cc(NC(=O)OCCCN4CCCCC4)c(C(C)C)c23)cc1O`, the IC50 in series [1] was 5 nM; in the series with Cell line [2], 1 nM. The Glucuronidation in the series filed under Homo sapiens was 0.08 nmol/min/mg.

In the case of `Cc1ccc(Nc2ncnn3cc(C(=O)NCCCN4CCOCC4)c(C)c23)cc1O`, the IC50 in series [1] amounted to 52 nM; in the series on Cell line [2] it was 3 nM. In the series listed under Homo sapiens, this molecule yielded a Glucuronidation of 0.01 nmol/min/mg.

In series [1], `COC(=O)c1cn2ncnc(Nc3ccc(C)c(O)c3)c2c1C` came in with an IC50 of 10 nM.

Molecule `CCc1ccc(Nc2ncnn3cc(C(=O)OC)c(C)c23)cc1O` had an IC50 in series [1] of 55 nM.

In series [1], `CCCc1ccc(Nc2ncnn3cc(C(=O)OC)c(C)c23)cc1O` came in with a half-inhibitory concentration (IC50) of 190 nM.

`Cc1ccc(Nc2ncnn3cc(C(=O)NCCCN4CCCC4)c(C)c23)cc1O` yielded a Glucuronidation in series [3] of 0.01 nmol/min/mg. Moreover, the IC50 in series [1] stood at 40 nM; with Cell line [2], 10 nM.

As for `COC(=O)c1cn2ncnc(Nc3cccc(O)c3)c2c1C`, the midpoint of inhibition in series [1], the IC50, lay at 61 nM.

Consider `CCCc1c(C(=O)NCCCN2CCCC2)cn2ncnc(Nc3ccc(C)c(O)c3)c12`, for which the IC50 is 90 nM in series [1] and 35 nM in the series on Cell line [2].

As for `COC(=O)c1cn2ncnc(Nc3ccc(C(C)C)c(O)c3)c2c1C`, the IC50 in series [1] stood at 380 nM.

As for `COC(=O)c1cn2ncnc(Nc3ccc(Br)c(O)c3)c2c1C`, the half-maximal inhibitory concentration (IC50) in series [1] was 33 nM.

For `CCOC(=O)c1cn2ncnc(Nc3ccc(C)c(O)c3)c2c1OCC`, the half-maximal inhibitory concentration (IC50) turned out to be 64 nM in series [1] and 40 nM in the series on Cell line [2].

As to `Cc1ccc(Nc2ncnn3cc(NC(=O)NCCCN4CCCCC4)c(C(C)C)c23)cc1O`, the IC50 (in series [1]; in the series on Cell line [2]) was 5 nM each time. For the same molecule, the Glucuronidation in the series listed under Homo sapiens is 0.04 nmol/min/mg.

Turning to `Cc1ccc(Nc2ncnn3cc(OCCCN4CCCCC4)c(C(C)C)c23)cc1O`, the IC50 came out at 4 nM in series [1] and 1 nM in the series with Cell line [2]. Besides, the Glucuronidation in the series listed under Homo sapiens worked out at 0.03 nmol/min/mg.

Regarding `COC(=O)c1cn2ncnc(Nc3ccc(C)c(O)c3)c2c1C(C)(C)C`, the IC50 entry was “Not Active” in the series on Cell line [4] and 310 nM in series [1].

On to `COC(=O)c1cn2ncnc(Nc3ccc(C(F)(F)F)c(O)c3)c2c1C`, for which the 50% inhibitory concentration (IC50) in series [1] was 370 nM.

By AUC(0-t) is commonly meant the area under the concentration-time curve up to a stated or last time point. As usually defined, the Cmax is the peak of the concentration-time curve. `Cc1ccc(Nc2ncnn3cc(C(=O)NCCCN4CCCC4)c(C(C)C)c23)cc1O`: the IC50 in series [1] stood at 18 nM; in the series on Cell line [2], 8 nM. In series [5], this molecule had an area under the curve AUC(0-t) at 4 h of 0.267 µM·h. For the same molecule, in the series filed under Homo sapiens, the Glucuronidation was determined as 0.02 nmol/min/mg. The same molecule came in with a peak concentration (Cmax) in series [6] of 166 nM.

`COCCCNC(=O)c1cn2ncnc(Nc3ccc(C)c(O)c3)c2c1C` had an IC50 in series [1] of 150 nM. The Glucuronidation in the series listed under Homo sapiens turned out to be 0.16 nmol/min/mg.

Regarding `Cc1ccc(Nc2ncnn3cc(NC(=O)OCCCn4nccn4)c(C(C)C)c23)cc1O`, the midpoint of inhibition in series [1], the IC50, lay at 7 nM. Also, in the series filed under Homo sapiens, the Glucuronidation was 0.9 nmol/min/mg.

Regarding `CCCc1c(C(=O)OCC)cn2ncnc(Nc3ccc(C)c(O)c3)c12`, the IC50 was found to be 3 nM in series [1] and 6 nM in the series on Cell line [2].
